Results published in patent US11932636B2, “RAD51 inhibitors” (Cyteir Therapeutics, Inc., priority 2019, dated 2024).

Test system: Daudi cells (AID positive)
Assay: Compound primary screening: cell death in AID positive Daudi cells (Cell-Titer Glo, Day 7)
Type: cell-based
Details: Homo sapiens, 168 h; Daudi cells, AID positive; cell death on Day 7, Cell-Titer Glo; read-out: Cellular activity in AID + (Daudi)
Description: Example 149. Compound Primary Screening
AID expressing cells are dependent upon RAD51 for survival; inhibiting RAD51 in AID positive cells results in a cytotoxic effect.
A 96 well u-bottom plate was prepared by writing the experiment number, plate number, date and initials in the top right corner of the plate lid. With a sterile 300 ml reservoir, and 25 ml serological pipette, evaporation buffer media was pipetted into reservoir in 25 ml increments. Using the liquid handler, 150 ul of evaporation buffer media was pipetted from reservoir into rows A and H, and Columns 1 and 12 of the 96 well u-bottom plate. Cell cultures were counted to obtain the density of cells per ml, and the culture viability. The cell density information was used to obtain 1,000,000 cells from culture using a 5 mL serological pipette into an epi tube. The cell density information from the culture was used to calculate the number of cells and volume of media needed for the assay to seed 1250 cells in 130 ul of media per available culture well in the 96 well u-bottom plate. Rows B through F were used for cells (50 wells in total), with row G left for an empty media control. The calculation was overestimated by 10 mL to account for the dead volume in the 300 ml reservoir. Once the media volume was calculated, the appropriate volume of media was pipetted in 25 mL increments into the 250 mL bottle using a 25 mL serological pipette. The 250 ml bottle was capped tightly, and placed into a 37° C. water bath for 2 minutes. While the culture media was warming, 10 mL of fresh media was pipetted from the 500 mL culture media bottle into a sterile 25 mL reservoir. Using the Eppendorf multichannel pipette, 130 ul of media was pipetted from the 25 mL reservoir into row G of the 96 well u-bottom plate. Once the 250 mL bottle of media was warmed, the volume of culture needed was pipetted into the bottle, and mixed gently with a 25 mL serological pipette as to not create bubbles, and then the contents of the bottle were pipetted into a new 300 mL reservoir. Using the liquid handler, 130 ul of culture was pipetted from the 300 mL reservoir into rows B through F of the 96 well u-bottom plate. Once the culture was added, the plate was placed into a 37° C. incubator until the compound master plate was prepared for use.
Two 96 well u-bottom plates were prepared by writing the master plate name in the upper right corner of the plate lid. Labeling one DMSO master and the other Media Master. The compounds of interest were obtained from the laboratory freezer, and placed into a 25 well storage box with a lid, and set the box aside. The compounds were vortexed after thawing but before use. Using an automatic multichannel pipette, 20 ul of 100% DMSO was pipetted into wells B3-B11 through G3-G11 of the DMSO master plate. For each compound on the master plate, 50 ul of the compound were pipetted in the appropriate well of row 2 (reference plate map to determine appropriate well). A serial dilution was prepared beginning by aspirating 20 ul from row 2 and mixing with row 3, repeating until row 11 was reached. Using the liquid handler, 194 ul of Daudi media was dispensed into wells B2-B11 through G2-G11 of the Media master plate. Using the liquid handler, 6 ul from the DMSO master plate was aspirated and dispensed into the media master plate, mixing 100 ul twice.
Compounds from master plate were then added to the culture plate. The culture plates were removed from the incubator, and set inside the biosafety cabinet. Using a liquid handler, 20 ul from wells B2 to B11 through G2 to G11 of master plate were aspirated, and dispensed into wells B2 to B11 through G2 to G11 of culture plate. This set was continued with each culture plate. Once the culture plates acquired their 20 ul of compound dilutions, they were placed back into the incubator, until their reads on Day 7 of experiment.
Cell death was measured on Day 7 of the experiment using Cell-Titer Glo and a Promega Plate reader.

| Compound | EC50 [µM] |
| --- | --- |
| CC(C)OC(=O)N[C@H]1CC[C@H](c2ncc(-c3ccc(CN)cc3S(=O)(=O)NC(C)(C)C)s2)CC1 [Compound 1, isopropyl (trans-4-(5-(4-(aminomethyl)-2-(N-(tert-butyl)sulfamoyl)phenyl)thiazol-2-yl)cyclohexyl)carbamate] | > 10 |
| CC(=O)NCc1ccc(-c2cnc([C@H]3CC[C@H](NC(=O)OC(C)C)CC3)s2)c(S(=O)(=O)NC(C)(C)C)c1 [Compound 2, isopropyl (trans-4-(5-(4-(acetamidomethyl)-2-(N-(tert-butyl)sulfamoyl)phenyl)thiazol-2-yl)cyclohexyl)carbamate] | > 10 |
| CC(C)OC(=O)N[C@H]1CC[C@H](c2ncc(-c3ccc(-c4cnn5ccccc45)cc3S(=O)(=O)NC(C)(C)C)s2)CC1 [Compound 3, isopropyl (trans-4-(5-(2-(N-(tert-butyl)sulfamoyl)-4-(pyrazolo[1,5-a]pyridin-3-yl)phenyl)thiazol-2-yl)cyclohexyl)carbamate] | 0.1 to 1 |
| CC(C)OC(=O)N[C@H]1CC[C@H](c2ncc(-c3ccc(-c4cnn(CC(F)(F)F)c4)cc3S(=O)(=O)NC(C)(C)C)s2)CC1 [Compound 4, isopropyl (trans-4-(5-(2-(N-(tert-butyl)sulfamoyl)-4-(1-(2,2,2-trifluoroethyl)-1H-pyrazol-4-yl)phenyl)thiazol-2-yl)cyclohexyl)carbamate] | 0.1 to 1 |
| CC(C)OC(=O)N[C@H]1CC[C@H](c2ncc(-c3ccc(-c4cccnc4)cc3S(=O)(=O)NC(C)(C)C)s2)CC1 [Compound 5, isopropyl (trans-4-(5-(2-(N-(tert-butyl)sulfamoyl)-4-(pyridin-3-yl)phenyl)thiazol-2-yl)cyclohexyl)carbamate] | 1 to 10 |
| CC(C)OC(=O)N[C@H]1CC[C@H](c2ncc(-c3ccc(-c4cc[nH]n4)cc3S(=O)(=O)NC(C)(C)C)s2)CC1 [Compound 6, isopropyl (trans-4-(5-(2-(N-(tert-butyl)sulfamoyl)-4-(1H-pyrazol-3-yl)phenyl)thiazol-2-yl)cyclohexyl)carbamate] | 1 to 10 |
| CC(C)OC(=O)N[C@H]1CC[C@H](c2ncc(-c3ccc(-c4ccc(O)nc4)cc3S(=O)(=O)NC(C)(C)C)s2)CC1 [Compound 7, isopropyl (trans-4-(5-(2-(N-(tert-butyl)sulfamoyl)-4-(6-hydroxypyridin-3-yl)phenyl)thiazol-2-yl)cyclohexyl)carbamate] | 1 to 10 |
| COc1ncc(-c2ccc(-c3cnc([C@H]4CC[C@H](NC(=O)OC(C)C)CC4)s3)c(S(=O)(=O)NC(C)(C)C)c2)c(OC)n1 [Compound 8, isopropyl (trans-4-(5-(2-(N-(tert-butyl)sulfamoyl)-4-(2,4-dimethoxypyrimidin-5-yl)phenyl)thiazol-2-yl)cyclohexyl)carbamate] | 0.1 to 1 |
| CC(C)OC(=O)N[C@H]1CC[C@H](c2ncc(-c3ccc(-c4ccc5c[nH]nc5c4)cc3S(=O)(=O)NC(C)(C)C)s2)CC1 [Compound 9, isopropyl (trans-4-(5-(2-(N-(tert-butyl)sulfamoyl)-4-(2H-indazol-6-yl)phenyl)thiazol-2-yl)cyclohexyl)carbamate] | 1 to 10 |
| CC(C)OC(=O)N[C@H]1CC[C@H](c2ncc(-c3ccc(-c4cnc(N)nc4)cc3S(=O)(=O)NC(C)(C)C)s2)CC1 [Compound 10, isopropyl (trans-4-(5-(4-(2-aminopyrimidin-5-yl)-2-(N-(tert-butyl)sulfamoyl)phenyl)thiazol-2-yl)cyclohexyl)carbamate] | 0.1 to 1 |
| CC(C)OC(=O)N[C@H]1CC[C@H](c2ncc(-c3ccc(-c4ccc5occc5c4)cc3S(=O)(=O)NC(C)(C)C)s2)CC1 [Compound 11, isopropyl (trans-4-(5-(4-(benzofuran-5-yl)-2-(N-(tert-butyl)sulfamoyl)phenyl)thiazol-2-yl)cyclohexyl)carbamate] | 1 to 10 |
| CC(C)OC(=O)N[C@H]1CC[C@H](c2ncc(-c3ccc(-c4cncnc4)cc3S(=O)(=O)NC(C)(C)C)s2)CC1 [Compound 12, isopropyl (trans-4-(5-(2-(N-(tert-butyl)sulfamoyl)-4-(pyrimidin-5-yl)phenyl)thiazol-2-yl)cyclohexyl)carbamate] | > 10 |
| COc1cc(-c2ccc(-c3cnc([C@H]4CC[C@H](NC(=O)OC(C)C)CC4)s3)c(S(=O)(=O)NC(C)(C)C)c2)c(OC)nn1 [Compound 13, isopropyl (trans-4-(5-(2-(N-(tert-butyl)sulfamoyl)-4-(3,6-dimethoxypyridazin-4-yl)phenyl)thiazol-2-yl)cyclohexyl)carbamate] | 0.1 to 1 |
| Cc1ncc(-c2ccc(-c3cnc([C@H]4CC[C@H](NC(=O)OC(C)C)CC4)s3)c(S(=O)(=O)NC(C)(C)C)c2)s1 [Compound 14, isopropyl (trans-4-(5-(2-(N-(tert-butyl)sulfamoyl)-4-(2-methylthiazol-5-yl)phenyl)thiazol-2-yl)cyclohexyl)carbamate] | 1 to 10 |
| CC(C)OC(=O)N[C@H]1CC[C@H](c2ncc(-c3ccc(-c4ccc5ncsc5c4)cc3S(=O)(=O)NC(C)(C)C)s2)CC1 [Compound 15, isopropyl (trans-4-(5-(4-(benzo[d]thiazol-6-yl)-2-(N-(tert-butyl)sulfamoyl)phenyl)thiazol-2-yl)cyclohexyl)carbamate] | 1 to 10 |
| CC(C)OC(=O)N[C@H]1CC[C@H](c2ncc(-c3ccc(-c4cncc(CN(C)C)c4)cc3S(=O)(=O)NC(C)(C)C)s2)CC1 [Compound 16, isopropyl (trans-4-(5-(2-(N-(tert-butyl)sulfamoyl)-4-(5-((dimethylamino)methyl)pyridin-3-yl)phenyl)thiazol-2-yl)cyclohexyl)carbamate] | 1 to 10 |
| Cc1[nH]ncc1-c1ccc(-c2cnc([C@H]3CC[C@H](NC(=O)OC(C)C)CC3)s2)c(S(=O)(=O)NC(C)(C)C)c1 [Compound 17, isopropyl (trans-4-(5-(2-(N-(tert-butyl)sulfamoyl)-4-(5-methyl-1H-pyrazol-4-yl)phenyl)thiazol-2-yl)cyclohexyl)carbamate] | 1 to 10 |
| CC(C)OC(=O)N[C@H]1CC[C@H](c2ncc(-c3ccc(-c4ccc(C#N)nc4)cc3S(=O)(=O)NC(C)(C)C)s2)CC1 [Compound 18, isopropyl (trans-4-(5-(2-(N-(tert-butyl)sulfamoyl)-4-(6-cyanopyridin-3-yl)phenyl)thiazol-2-yl)cyclohexyl)carbamate] | 1 to 10 |
| CC(C)OC(=O)N[C@H]1CC[C@H](c2ncc(-c3ccc(-c4ccc5nn[nH]c5c4)cc3S(=O)(=O)NC(C)(C)C)s2)CC1 [Compound 19, isopropyl (trans-4-(5-(4-(1H-benzo[d][1,2,3]triazol-6-yl)-2-(N-(tert-butyl)sulfamoyl)phenyl)thiazol-2-yl)cyclohexyl)carbamate] | > 10 |
| CC(C)OC(=O)N[C@H]1CC[C@H](c2ncc(-c3ccc(-c4ccc(CO)nc4)cc3S(=O)(=O)NC(C)(C)C)s2)CC1 [Compound 20, isopropyl (trans-4-(5-(2-(N-(tert-butyl)sulfamoyl)-4-(6-(hydroxymethyl)pyridin-3-yl)phenyl)thiazol-2-yl)cyclohexyl)carbamate] | 1 to 10 |
| Cc1c[nH]c2cc(-c3ccc(-c4cnc([C@H]5CC[C@H](NC(=O)OC(C)C)CC5)s4)c(S(=O)(=O)NC(C)(C)C)c3)ccc12 [Compound 21, isopropyl (trans-4-(5-(2-(N-(tert-butyl)sulfamoyl)-4-(3-methyl-1H-indol-6-yl)phenyl)thiazol-2-yl)cyclohexyl)carbamate] | 1 to 10 |
| CC(C)OC(=O)N[C@H]1CC[C@H](c2ncc(-c3ccc(-c4ccnc(C(F)(F)F)c4)cc3S(=O)(=O)NC(C)(C)C)s2)CC1 [Compound 22, isopropyl (trans-4-(5-(2-(N-(tert-butyl)sulfamoyl)-4-(2-(trifluoromethyl)pyridin-4-yl)phenyl)thiazol-2-yl)cyclohexyl)carbamate] | 1 to 10 |
